Tested on: neutrophil-to-lymphocyte ratio in blood
Assay: Neutrophil-to-lymphocyte ratio in venous blood after four weeks of curcumin-containing capsule intake
Assay type: in vivo, human
Experimental: Each of 20 men and women of 60 years old or older was caused to take a curcumin-containing capsule (containing 90 mg of curcumin per capsule) twice a day in the morning and the evening for four weeks (daily dose 180 mg). Venous blood was collected at start and end of administration, and a neutrophil-to-lymphocyte ratio was measured.
As a result, in a non-parametric test (Wilcoxon code rank test), the neutrophil-to-lymphocyte ratio at start of administration was 1.7 (1.3, 2.1), whereas the neutrophil-to-lymphocyte ratio at end of administration was 1.4 (1.2, 1.7).

## COc1cc(/C=C/C(=O)/C=C(O)/C=C/c2ccc(O)c(OC)c2)ccc1O [curcumin]
After four weeks, 90 mg curcumin capsule twice a day (daily dose 180 mg), oral, 20 men and women of 60 years old or older, venous blood
  neutrophil-to-lymphocyte ratio at end of administration: 1.4 (1.2, 1.7)
baseline, 20 men and women of 60 years old or older, venous blood, spread in brackets not defined
  neutrophil-to-lymphocyte ratio at start of administration: 1.7 (1.3, 2.1)
Four weeks, daily dose 180 mg, non-parametric test (Wilcoxon code rank test)
  change of neutrophil-to-lymphocyte ratio, start vs end of administration: significantly decreased
